Reference: patent publication US12590065B2, “Levorphanol prodrugs and processes for making and using them” (Zevra Therapeutics, Inc., priority 2017, dated 2026)

Assay: stability of the deprotected derivative in aqueous solution
Assay type: physicochemical
Conditions: observed after Boc deprotection with 4N HCl in dioxane
Method: A solution of 38 in 4N HCl in dioxane (5 mL) was stirred at room temperature for 2 hours. Solvent was evaporated under reduced pressure, the residue was co-evaporated with IPAc and dried to give 40 in quantitative yield. The deprotected derivative 40 was not stable in aqueous solution. Compound 40 was converted to the acetyl derivative 42.

CC(C)[C@H](N)C(=O)OCOC(=O)Oc1ccc2c(c1)[C@@]13CCCC[C@H]1[C@@H](C2)N(C)CC3 [Compound 40, 3-(Val-OCH2OC(O))-Levorphanol]
stability in aqueous solution: not stable
